In one data set the test system is A549 lung adenocarcinoma. Kind of data set: cytotoxicity against A549 lung adenocarcinoma cell line. The class given is cell-based. Conditions: read-out: cytotoxicity IC50, A549; A549 lung adenocarcinoma.
A further data set has as its system Du145 colon carcinoma. Description: cytotoxicity against Du145 colon carcinoma cell line. The class given is cell-based. Conditions: read-out: cytotoxicity IC50, Du145.
Data set [1] has as its system HT29 colon adenocarcinoma. Kind of data set: cytotoxicity against HT29 colon adenocarcinoma cell line. Conditions: read-out: cytotoxicity IC50, HT29; HT29 colon adenocarcinoma. The class given is cell-based.
For another data set, the system named is MCF7 breast carcinoma. Description: cytotoxicity against MCF7 breast carcinoma cell line. The data set is classed as cell-based. Conditions: read-out: cytotoxicity IC50, MCF7; MCF7 breast carcinoma.
For data set [2], the system named is PP-1. Kind of data set: PP inhibition assay, PP-1. The settings on record: triplicate. The class given is biochemical.
For data set [3], the system named is PP-2A. Kind of data set: PP inhibition assay, PP-2A. The class given is biochemical. Conditions: triplicate.
Data set [4] in a line: cytotoxicity against A549 lung adenocarcinoma cell line. The data set is classed as cell-based. Conditions: human, A549 lung adenocarcinoma cells.
Data set [5] can be described thus: cytotoxicity against HT29 colon adenocarcinoma cell line. The class given is cell-based. Conditions: human, HT29 colon adenocarcinoma cells.
The nature of data set [6]: cytotoxicity against MCF7 breast carcinoma cell line. The settings on record: human, MCF7 breast carcinoma cells. The data set is classed as cell-based.
Data set [7] has as its system PP-1. Conditions: cited from earlier work.
Data set [8] deals with PP-2A. Conditions: read-out: IC50 PP-2A; cited from earlier work.
Setting [9] is: read-out: IC50 PP-1, pH 7.5, pH 7.5.
Where [10] appears, read: read-out: IC50 PP-1, pH 8.4, pH 8.4.

Read-outs that look alike come from different tables or passages of the source.

Consider 3′-deshydroxy-TTM [compound 3], for which the IC50 with A549 lung adenocarcinoma came out at 26.6 ± 6.4 µM; in the data set on Du145 colon carcinoma, 4.24 ± 0.11 µM; in data set [1], 7.35 ± 0.19 µM; in the data set with MCF7 breast carcinoma, 15.6 ± 0.9 µM; in the data set with PP-1 [2] (setting [9]), 0.47 µM; in the data set with PP-1 [2] (setting [10]) it was 0.677 µM. The IC50 with PP-2A [3] (read-out: IC50 PP-2A, pH 7.5) was 15.6 µM; in the data set on PP-2A [3] (read-out: IC50 PP-2A, pH 8.4), 15.3 µM.
Regarding `CO[C@H]([C@H](O)CC(=O)[C@@H](C)[C@@H](O)CC[C@@H](C)[C@@H]1O[C@]2(CC[C@@H](C)[C@H](CC[C@H](C)C(C)=O)O2)CC[C@@H]1C)[C@H](OC(=O)C[C@@H](O)C1=C(C)C(=O)OC1=O)C(C)C` [compound 1, Tautomycin, reference compound], the IC50 in [4] is 1.66 ± 0.14 µM; in data set [5], 0.59 ± 0.01 µM; in [6], 1.8 ± 0.12 µM; in the data set on PP-1 [2] (setting [9]), 0.00058 µM; in the data set on PP-1 [2] (setting [10]), 0.00086 µM; in the data set with PP-2A [3] (read-out: IC50 PP-2A, pH 7.5), 0.015 µM. For the same compound, in the data set on PP-2A [3] (read-out: IC50 PP-2A, pH 8.4), the IC50 was determined as 0.0426 µM.
For C3′ epi-TTM, in the data set on PP-1 [7] (relative to 1), the “less effective at PP-1 inhibition than 1” value is on record as ~ 1000 fold.
Take tautomycetin [compound 2]: the “higher affinity for PP-1 than for PP-2A” value in the data set with PP-1 [7] (PP-1 over PP-2A) is reported as ~40 fold. Also, the half-inhibitory concentration (IC50) was 0.0016 µM in the data set with PP-1 [7] (read-out: IC50 PP-1) and 0.062 µM with PP-2A [8].

A word on the IC50: it is the concentration needed to halve the response being measured.

The record behind these values is paper PMC2707755 (Organic letters, 2009).
